# In patent US6642258B1, “Use of central cannabinoid receptor antagonist for preparing medicines” (Sanofi-Synthelabo, priority 1999, dated 2003):
# What was measured:
# [1] = system: experimental allergic encephalitis (EAE) in Lewis rats; assay: Experimental allergic encephalitis (EAE) induced in Lewis rats by intraplantar MBP (fragment 68-84) in FCA; format: in vivo; settings: administered orally or intraperitoneally from day zero of induction
# [2] = system: experimental allergic encephalitis (EAE) in SjL/j mice; assay: Experimental allergic encephalitis (EAE) induced in SjL/j mice by subcutaneous PLP (fragment 139-151) in FCA plus Bordetella pertussis; format: in vivo; settings: administered orally or intraperitoneally from day zero of induction
smiles,measurement,setting,value
"Cc1c(C(=O)NN2CCCCC2)nn(-c2ccc(Cl)cc2Cl)c1-c1ccc(Cl)cc1 [compound A, N-Piperidino-5-(4-chlorophenyl)-1-(2,4-dichlorophenyl)-4-methylpyrazole-3-carboxamide]",severity of the condition (paralysis of the hind quarters),[1],statistically smaller
same,weight loss of the animals,[1]; compared with vehicle alone,significantly smaller
same,severity of the condition (paralysis of the hind quarters),[2],statistically smaller
same,weight loss of the animals,[2]; compared with vehicle alone,significantly smaller
